According to PubChem BioAssay AID1918996 (Molecular Pharmacology Branch, DTP, NCI, 2023):

Tested on: 349418-098-R-PDC complex spheroid growth
Test: Anticancer human tumor 349418-098-R-PDC patient-derived lung adenocarcinoma cell line growth inhibition [AhR]
Conditions: for IC50: curve of first compound; for viability, T/C: stronger effect = lower value
Method in brief: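 Complex tumor spheroids co-cultured with HUVEC and human MSC stroma; AhR antagonists tested in combination with standard-of-care and investigational agents. Top concentration at or near clinical Cmax (else 10 microM), half-log dilutions; growth expressed as percent test/control.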

[1] = second compound 0.1 µM, first compound 0.000949 µM
[2] = second compound 0.1 µM, first compound 0.003 µM
[3] = second compound 0.1 µM, first compound 0.00949 µM
[4] = second compound 0.1 µM, first compound 0.03 µM
[5] = second compound 0.1 µM, first compound 0.0949 µM
[6] = second compound 0.1 µM, first compound 0.3 µM
[7] = second compound 0.316 µM, first compound 0.000949 µM
[8] = second compound 0.316 µM, first compound 0.003 µM
[9] = second compound 0.316 µM, first compound 0.00949 µM
[10] = second compound 0.316 µM, first compound 0.03 µM
[11] = second compound 0.316 µM, first compound 0.0949 µM
[12] = second compound 0.316 µM, first compound 0.3 µM
[13] = second compound 1 µM, first compound 0.000949 µM
[14] = second compound 1 µM, first compound 0.003 µM
[15] = second compound 1 µM, first compound 0.00949 µM
[16] = second compound 1 µM, first compound 0.03 µM
[17] = second compound 1 µM, first compound 0.0949 µM
[18] = second compound 1 µM, first compound 0.3 µM
[19] = second compound 3.16 µM, first compound 0.000949 µM
[20] = second compound 3.16 µM, first compound 0.003 µM
[21] = second compound 3.16 µM, first compound 0.00949 µM
[22] = second compound 3.16 µM, first compound 0.03 µM
[23] = second compound 3.16 µM, first compound 0.0949 µM
[24] = second compound 3.16 µM, first compound 0.3 µM
[25] = second compound 10 µM, first compound 0.000949 µM
[26] = second compound 10 µM, first compound 0.003 µM
[27] = second compound 10 µM, first compound 0.00949 µM
[28] = second compound 10 µM, first compound 0.03 µM
[29] = second compound 10 µM, first compound 0.0949 µM
[30] = second compound 10 µM, first compound 0.3 µM
[31] = second compound 0.1 µM, first compound 0.0316 µM
[32] = second compound 0.1 µM, first compound 0.1 µM
[33] = second compound 0.1 µM, first compound 0.316 µM
[34] = second compound 0.1 µM, first compound 1 µM
[35] = second compound 0.1 µM, first compound 3.16 µM
[36] = second compound 0.1 µM, first compound 10 µM
[37] = second compound 0.316 µM, first compound 0.0316 µM
[38] = second compound 0.316 µM, first compound 0.1 µM
[39] = second compound 0.316 µM, first compound 0.316 µM
[40] = second compound 0.316 µM, first compound 1 µM
[41] = second compound 0.316 µM, first compound 3.16 µM
[42] = second compound 0.316 µM, first compound 10 µM
[43] = second compound 1 µM, first compound 0.0316 µM
[44] = second compound 1 µM, first compound 0.1 µM
[45] = second compound 1 µM, first compound 0.316 µM
[46] = second compound 1 µM, first compound 1 µM
[47] = second compound 1 µM, first compound 3.16 µM
[48] = second compound 1 µM, first compound 10 µM
[49] = second compound 3.16 µM, first compound 0.0316 µM
[50] = second compound 3.16 µM, first compound 0.1 µM
[51] = second compound 3.16 µM, first compound 0.316 µM
[52] = second compound 3.16 µM, first compound 1 µM
[53] = second compound 3.16 µM, first compound 3.16 µM
[54] = second compound 3.16 µM, first compound 10 µM
[55] = second compound 10 µM, first compound 0.0316 µM
[56] = second compound 10 µM, first compound 0.1 µM
[57] = second compound 10 µM, first compound 0.316 µM
[58] = second compound 10 µM, first compound 1 µM
[59] = second compound 10 µM, first compound 3.16 µM
[60] = second compound 10 µM, first compound 10 µM
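Further: spheroids exposed to agents for seven days before luminescence viability read.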
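Wherever viability, T/C is given: spheroids also contain HUVEC endothelial cells and human MSC stroma.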

SMILES: CC(C)CC(NC(=O)C(Cc1ccccc1)NC(=O)c1cnccn1)B(O)O (stereo not given) + Cc1cncc(-c2nc(NCCc3c[nH]c4ccccc34)c3ncn(C(C)C)c3n2)c1
- IC50 (second compound 0.1 µM): 0.00141 µM
- IC50 (second compound 0.316 µM): 0.00128 µM
- IC50 (second compound 1 µM): 0.00106 µM
- IC50 (second compound 3.16 µM): < 0.000949 µM
- IC50 (second compound 10 µM): < 0.000949 µM
- viability, T/C [1]: 70.6%
- viability, T/C [2]: 11.2%
- viability, T/C [3]: 1.67%
- viability, T/C [4]: 0.88%
- viability, T/C [5]: 0.78%
- viability, T/C [6]: 0.75%
- viability, T/C [7]: 64.6%
- viability, T/C [8]: 8.44%
- viability, T/C [9]: 1.59%
- viability, T/C [10]: 0.9%
- viability, T/C [11]: 0.92%
- viability, T/C [12]: 0.62%
- viability, T/C [13]: 54.1%
- viability, T/C [14]: 9.85%
- viability, T/C [15]: 1.7%
- viability, T/C [16]: 0.85%
- viability, T/C [17]: 0.77%
- viability, T/C [18]: 1.06%
- viability, T/C [19]: 20.6%
- viability, T/C [20]: 5.89%
- viability, T/C [21]: 1.01%
- viability, T/C [22]: 0.57%
- viability, T/C [23]: 0.58%
- viability, T/C [24]: 0.62%
- viability, T/C [25]: 2.07%
- viability, T/C [26]: 1.16%
- viability, T/C [27]: 0.23%
- viability, T/C [28]: 0.14%
- viability, T/C [29]: 0.11%
- viability, T/C [30]: 0.15%

SMILES: CCc1c2c(nc3ccc(O)cc13)-c1cc3c(c(=O)n1C2)COC(=O)[C@]3(O)CC + Cc1cncc(-c2nc(NCCc3c[nH]c4ccccc34)c3ncn(C(C)C)c3n2)c1
- IC50 (second compound 0.1 µM): < 0.000949 µM
- IC50 (second compound 0.316 µM): < 0.000949 µM
- IC50 (second compound 1 µM): < 0.000949 µM
- IC50 (second compound 3.16 µM): < 0.000949 µM
- IC50 (second compound 10 µM): < 0.000949 µM
- viability, T/C [1]: 49.5%
- viability, T/C [2]: 24.2%
- viability, T/C [3]: 6.34%
- viability, T/C [4]: 3.54%
- viability, T/C [5]: 2.3%
- viability, T/C [6]: 1.59%
- viability, T/C [7]: 47.7%
- viability, T/C [8]: 16.8%
- viability, T/C [9]: 5.66%
- viability, T/C [10]: 3.5%
- viability, T/C [11]: 2.11%
- viability, T/C [12]: 1.51%
- viability, T/C [13]: 41.9%
- viability, T/C [14]: 14.4%
- viability, T/C [15]: 5.54%
- viability, T/C [16]: 3.53%
- viability, T/C [17]: 2.48%
- viability, T/C [18]: 1.41%
- viability, T/C [19]: 12.8%
- viability, T/C [20]: 6.98%
- viability, T/C [21]: 3.19%
- viability, T/C [22]: 2.37%
- viability, T/C [23]: 1.61%
- viability, T/C [24]: 1.27%
- viability, T/C [25]: 1.19%
- viability, T/C [26]: 1.44%
- viability, T/C [27]: 0.76%
- viability, T/C [28]: 0.65%
- viability, T/C [29]: 0.41%
- viability, T/C [30]: 0.29%

SMILES: Nc1ccccc1NC(=O)c1ccc(CNC(=O)OCc2cccnc2)cc1 + Cc1cncc(-c2nc(NCCc3c[nH]c4ccccc34)c3ncn(C(C)C)c3n2)c1
- IC50 (second compound 0.1 µM): 0.612 µM
- IC50 (second compound 0.316 µM): 0.759 µM
- IC50 (second compound 1 µM): 0.517 µM
- IC50 (second compound 3.16 µM): < 0.0316 µM
- IC50 (second compound 10 µM): < 0.0316 µM
- viability, T/C [31]: 79.9%
- viability, T/C [32]: 69.6%
- viability, T/C [33]: 58.4%
- viability, T/C [34]: 46.7%
- viability, T/C [35]: 19.9%
- viability, T/C [36]: 4.89%
- viability, T/C [37]: 69.7%
- viability, T/C [38]: 73.5%
- viability, T/C [39]: 57.3%
- viability, T/C [40]: 47.7%
- viability, T/C [41]: 25.6%
- viability, T/C [42]: 4.93%
- viability, T/C [43]: 72.6%
- viability, T/C [44]: 67.5%
- viability, T/C [45]: 54.9%
- viability, T/C [46]: 43.2%
- viability, T/C [47]: 20.1%
- viability, T/C [48]: 4.95%
- viability, T/C [49]: 12.8%
- viability, T/C [50]: 15.7%
- viability, T/C [51]: 9.2%
- viability, T/C [52]: 12.1%
- viability, T/C [53]: 7.68%
- viability, T/C [54]: 2.59%
- viability, T/C [55]: 1%
- viability, T/C [56]: 1.06%
- viability, T/C [57]: 0.67%
- viability, T/C [58]: 0.76%
- viability, T/C [59]: 0.51%
- viability, T/C [60]: 0.34%

SMILES: O=C(c1cc(Cc2n[nH]c(=O)c3ccccc23)ccc1F)N1CCN(C(=O)C2CC2)CC1 + Cc1cncc(-c2nc(NCCc3c[nH]c4ccccc34)c3ncn(C(C)C)c3n2)c1
- IC50 (second compound 0.1 µM): > 10 µM
- IC50 (second compound 0.316 µM): > 10 µM
- IC50 (second compound 1 µM): > 10 µM
- IC50 (second compound 3.16 µM): < 0.0316 µM
- IC50 (second compound 10 µM): < 0.0316 µM
- viability, T/C [31]: 75.7%
- viability, T/C [32]: 91.6%
- viability, T/C [33]: 98.3%
- viability, T/C [34]: 89.9%
- viability, T/C [35]: 75.2%
- viability, T/C [36]: 58.8%
- viability, T/C [37]: 94.8%
- viability, T/C [38]: 102%
- viability, T/C [39]: 99.4%
- viability, T/C [40]: 82.3%
- viability, T/C [41]: 74.7%
- viability, T/C [42]: 64.4%
- viability, T/C [43]: 81.7%
- viability, T/C [44]: 86.7%
- viability, T/C [45]: 84.1%
- viability, T/C [46]: 67.2%
- viability, T/C [47]: 75.5%
- viability, T/C [48]: 65.1%
- viability, T/C [49]: 17.7%
- viability, T/C [50]: 19%
- viability, T/C [51]: 14.9%
- viability, T/C [52]: 12.7%
- viability, T/C [53]: 15%
- viability, T/C [54]: 13.9%
- viability, T/C [55]: 1.12%
- viability, T/C [56]: 1.3%
- viability, T/C [57]: 0.99%
- viability, T/C [58]: 1.23%
- viability, T/C [59]: 1.33%
- viability, T/C [60]: 1.37%
